One molecule from patent publication US20240269106A1, “SMALL MOLECULE MODULATOR TARGETING A RARE HISTONE MODIFICATION REGULATING ADIPOGENESIS AND PHARMACEUTICAL FORMULATION THEREOF” (COUNCIL OF SCIENTIFIC AND INDUSTRIAL RESEARCH AN INDIAN …, priority 2021, published 2024) can be followed below.

The test system of assay [1] is histone butyrylation and acetylation in liver and adipose tissue. The assay is described as follows: Histone modifications in liver and adipose tissue of high fat diet mice. In kind it is in vivo. The method, then:
Collected liver tissue samples were stored in 4% paraformaldehyde for 24 hours after which they were cryoprotected in 30% sucrose solution for two weeks. Cryosections were performed at 7 μm sections using Cryostat Leica CM1850 UV. For staining, the tissue sections were washed with PBS followed by antigen retrieval with 0.01 M citrate buffer (pH 6). The tissues were then permeabilised with 0.3% Triton X-100/PBS (PBST) and blocked with 2% serum followed by incubation with primary antibodies overnight at 4° C. The next day, secondary antibody incubation was carried out for one hour at room temperature followed by staining of the nuclei with Hoechst 33342 and mounting with 70% glycerol. Images were acquired by confocal microscopy. For quantitation, intensity of each modification specific staining was normalized with respect to the Hoechst staining intensity.
It was observed that H4K5 butyrylation in liver increased upon high fat diet consumption but was inhibited in presence of compound of Formula I (FIG. 10A). […] Acid extraction of histones was performed from the epididymal fat pads of mice using the same protocol as mentioned in example 7. It was observed that H4K5 butyrylation was reduced in the adipocytes of high fat diet fed mice treated with compound of Formula I compared to mice fed with high fat diet only (FIG. 10B).

Assay [2] concerns C57BL/6J mice maintained on high fat diet. The assay is described as follows: Standardization of dosage and administration mode, intraperitoneal, high fat diet mice. Format: in vivo. How it is done:
Male C57BL/6J mice (8 weeks old) bred in house were obtained and acclimatized for 1 week prior to experiments. Mice were maintained on a 12-hour light/dark cycle at 22+/−3° C. and a relative humidity of 55% and given ad libitum access to food and water. The age-matched C57BL/6J mice were maintained on a standard laboratory chow diet or high fat diet (60 kcal % fat) and water. Two groups were intraperitoneally injected with compound x at two different doses (20 mg/Kg bw and 50 mg/kg bw) twice every week. A third group was injected with equivalent volume of DMSO (for 50 mg/kg bw) as vehicle control. Body weight and food intake was measured twice every week.

The target of assay [3] is T1, full length p300 (Homo sapiens, UniProt Q09472).
T1 construct: Purified full length p300 protein was used for in vitro acetylation/butyrylation assay
The assay is described as follows: In vitro p300 acetylation assay (immunoblot). In kind it is biochemical. The following applies: same range of concentration (10, 15, 20 and 25 μM). The method, then: (§1) Purified full length p300 protein was used for in vitro acetylation/butyrylation assay in presence/absence of different compounds. Acylation reactions were performed in reaction buffer (25 mM Tris-HCl PH 7.5, 100 mM NaCl, 0.1 mM EDTA, 1 mM DTT, 10% Glycerol, 1×PIC) with 100 ng/ml TSA, and 50 μM Butyryl-CoA/Acetyl COA. Xenopus histone H3 (500 ng) was used as the substrate and p300 (10,000 cpm activity) was used as the enzyme. Reactions were incubated in presence or absence of small molecule modulators (including compound of Formula I) for 10 minutes at 30° C., followed by initiation of the acetylation/butyrylation reaction by the addition of acetyl/butyryl CoA. After a further 10 minutes, reactions were stopped by addition of Laemmli buffer and samples were used for immunoblotting.
(§2) Immunoblotting with antibodies against acetylated H3K18, acetylated H3K9 and pan-butyryl lysine was performed to check for the relative inhibition of acetyl transferase and butyryl transferase activities of full length p300 by garcinol, isogarcinol and its different derivatives including compound of Formula I at different concentrations. FIG. 2i depicts the effect of garcinol, isogarcinol and two of its derivatives LTK-13 and LTK-14 on p300 catalysed acetyltransferase activity. […] FIG. 2ii depicts the effect of LTK-14 on acetylation and butyrylation catalysed by p300. Lane 1, enzyme alone; Lane 2-4, enzyme+LTK-14 at concentrations 500 nM, 2 μM and 10 μM, respectively. LTK-14 could inhibit acetylation at 10 μM concentration while butyrylation was inhibited at 2 μM concentration. FIG. 2iii depicts the effect of compound x on acetylation and butyrylation catalysed by p300. Lane 1, enzyme alone; Lane 2, enzyme+DMSO; Lane 3-6, enzyme+compound x at concentrations 10, 15, 20 and 25 μM, respectively.
In general terms: In western blotting, separated proteins are transferred to a membrane and probed.

In assay [4] the target is T1, full length p300. The assay is described as follows: In vitro p300 butyrylation assay (immunoblot). In kind it is biochemical. The following applies: 25 μM. How it is done: as §1, §2
Assay [5] has as its system genes associated with adipogenesis. The assay is described as follows: RT-PCR of adipogenesis related genes in 3T3L1. Format: cell-based. The settings on record: 3T3L1, RT-PCR. The method, then:
Total RNA was isolated from the treated 3T3L1 cells by phenol-chloroform method. The isolated RNA samples were treated with 2 units/μL DNase I to remove any residual DNA followed by overnight ethanol precipitation at −80° C. RNA integrity was checked in 1% agarose gel. 2 μg RNA was used for cDNA synthesis using oligo dT primers. RT-PCR was done using primers of adipogenesis related genes followed by detection with SYBR Green.
RT-PCR analysis was performed to show downregulation of genes associated with adipogenesis by compound of Formula I (FIG. 5). Error bars denote mean+/−SD of three biological replicates, one-way ANOVA with Dunnett's multiple comparison; * P<0.05, ** P<0.01, *** P<0.001, ns: not significant.

In assay [6] the test system is histone butyrylation and acetylation in liver and adipose tissue. The assay is described as follows: Histone modifications in liver and adipose tissue of db/db mice. Format: in vivo. How it is done: Liver sample sectioning and immunohistochemical staining was performed using the same protocol as mentioned in example 15. It was observed that H4K5 butyrylation in liver increased in the db/db obese mice liver but was inhibited in presence of compound of Formula I (FIG. 13A). […] Acid extraction of histones was performed from the epididymal fat pads of mice using the same protocol as mentioned in example 7. It was observed that H4K5 butyrylation was reduced in the adipocytes of db/db mice treated with compound of Formula I compared to db/db mice treated with vehicle control (FIG. 13B).

The mark [7] stands for this setting: epididymal fat pads, immunoblot.

T1 sequence (Q09472 whole entry, species assumed): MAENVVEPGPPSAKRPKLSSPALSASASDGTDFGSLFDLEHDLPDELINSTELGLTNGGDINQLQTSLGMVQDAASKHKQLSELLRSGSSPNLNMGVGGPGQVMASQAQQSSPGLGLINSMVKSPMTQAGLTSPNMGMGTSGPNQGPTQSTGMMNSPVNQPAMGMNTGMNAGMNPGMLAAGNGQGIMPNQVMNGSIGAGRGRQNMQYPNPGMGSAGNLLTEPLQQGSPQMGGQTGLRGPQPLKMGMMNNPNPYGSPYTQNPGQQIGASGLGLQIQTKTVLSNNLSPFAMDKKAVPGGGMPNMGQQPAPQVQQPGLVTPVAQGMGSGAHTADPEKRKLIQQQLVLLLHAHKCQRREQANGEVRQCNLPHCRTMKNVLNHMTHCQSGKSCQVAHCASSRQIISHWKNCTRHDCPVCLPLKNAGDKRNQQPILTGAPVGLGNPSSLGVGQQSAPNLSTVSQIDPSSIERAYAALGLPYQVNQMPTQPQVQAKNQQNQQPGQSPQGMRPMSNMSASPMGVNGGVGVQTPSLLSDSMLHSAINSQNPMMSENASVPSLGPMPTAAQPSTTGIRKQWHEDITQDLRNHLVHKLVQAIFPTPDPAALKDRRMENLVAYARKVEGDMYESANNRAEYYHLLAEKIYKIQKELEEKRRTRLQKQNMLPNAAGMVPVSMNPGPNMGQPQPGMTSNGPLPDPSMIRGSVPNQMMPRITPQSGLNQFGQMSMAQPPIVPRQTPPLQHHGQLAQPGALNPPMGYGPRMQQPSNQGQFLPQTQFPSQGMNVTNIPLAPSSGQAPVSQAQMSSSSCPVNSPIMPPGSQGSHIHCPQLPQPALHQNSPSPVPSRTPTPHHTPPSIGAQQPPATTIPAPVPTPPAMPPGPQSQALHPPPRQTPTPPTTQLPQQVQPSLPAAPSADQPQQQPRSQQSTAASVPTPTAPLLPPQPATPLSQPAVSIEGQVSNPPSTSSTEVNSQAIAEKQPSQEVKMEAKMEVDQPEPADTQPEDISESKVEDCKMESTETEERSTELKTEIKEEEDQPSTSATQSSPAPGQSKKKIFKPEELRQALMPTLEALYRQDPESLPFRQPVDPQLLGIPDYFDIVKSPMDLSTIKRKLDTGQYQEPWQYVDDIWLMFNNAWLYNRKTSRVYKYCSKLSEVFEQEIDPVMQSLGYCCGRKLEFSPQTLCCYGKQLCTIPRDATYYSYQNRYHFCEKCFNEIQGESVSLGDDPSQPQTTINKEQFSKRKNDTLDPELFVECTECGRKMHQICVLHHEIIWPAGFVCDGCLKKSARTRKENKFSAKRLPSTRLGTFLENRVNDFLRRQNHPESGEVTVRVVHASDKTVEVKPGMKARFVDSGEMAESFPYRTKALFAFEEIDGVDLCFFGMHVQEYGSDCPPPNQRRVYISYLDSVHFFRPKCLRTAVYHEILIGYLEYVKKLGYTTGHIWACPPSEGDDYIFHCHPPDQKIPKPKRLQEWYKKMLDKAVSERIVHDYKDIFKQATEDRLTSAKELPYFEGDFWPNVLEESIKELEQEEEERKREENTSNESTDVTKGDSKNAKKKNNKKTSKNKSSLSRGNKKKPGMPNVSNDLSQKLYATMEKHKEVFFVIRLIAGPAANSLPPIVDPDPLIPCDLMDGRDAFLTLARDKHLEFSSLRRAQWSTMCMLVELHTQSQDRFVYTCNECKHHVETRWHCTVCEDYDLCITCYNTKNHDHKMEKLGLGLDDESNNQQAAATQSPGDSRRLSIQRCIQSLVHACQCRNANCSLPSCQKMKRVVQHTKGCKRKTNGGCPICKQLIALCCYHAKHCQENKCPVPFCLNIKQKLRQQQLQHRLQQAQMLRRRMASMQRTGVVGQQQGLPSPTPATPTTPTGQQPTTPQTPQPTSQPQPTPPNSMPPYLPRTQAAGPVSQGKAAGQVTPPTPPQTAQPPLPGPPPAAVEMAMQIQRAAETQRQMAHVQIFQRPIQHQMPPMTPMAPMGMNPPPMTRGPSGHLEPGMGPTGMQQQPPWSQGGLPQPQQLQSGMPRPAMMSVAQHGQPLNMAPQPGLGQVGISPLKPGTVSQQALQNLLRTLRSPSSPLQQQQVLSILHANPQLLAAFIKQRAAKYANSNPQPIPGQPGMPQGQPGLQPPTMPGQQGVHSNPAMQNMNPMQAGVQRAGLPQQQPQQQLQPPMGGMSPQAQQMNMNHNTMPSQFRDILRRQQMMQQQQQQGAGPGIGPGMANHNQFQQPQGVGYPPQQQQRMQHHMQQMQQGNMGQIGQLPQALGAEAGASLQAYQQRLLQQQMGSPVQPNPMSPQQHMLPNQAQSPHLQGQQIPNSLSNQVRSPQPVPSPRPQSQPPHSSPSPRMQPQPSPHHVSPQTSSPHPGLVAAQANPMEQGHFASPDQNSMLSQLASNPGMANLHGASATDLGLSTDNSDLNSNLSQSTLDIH

Regarding `COc1ccc(C(=O)C2=C3OC(C)(C)[C@@H](CC=C(C)C)C[C@@]34C[C@@H](CC=C(C)C)C(C)(C)[C@@](CC=C(C)C)(C2=O)C4=O)cc1OC` [Compound X], the “H4K5 butyrylation in adipocytes” value in assay [1] (setting [7]) and in assay [6] (setting [7]) was “reduced” in each case. Also, the “H4K5 butyrylation in liver” value in assay [1] (immunohistochemistry) and in assay [6] (immunohistochemistry) was “inhibited” each time. Also, the “H4K12 and H3K14 acetylation in liver” value in assay [1] (immunohistochemistry) and in assay [6] (immunohistochemistry) was “not affected” each time. The weight gain result in assay [2] (20 mg/kg bw intraperitoneal twice every week) is reported as “not sufficient for arresting weight gain”. Also, the body weight entry in assay [2] (50 mg/kg bw intraperitoneal twice every week, DMSO vehicle gave almost similar arrest) is recorded as “did have an attenuating effect”. In addition, the “effect on acetylation catalysed by p300” value at full length p300 [3] was “without affecting acetylation”. Moreover, on full length p300 [4], the “effect on butyrylation catalysed by p300” value is recorded as “significant inhibitory effect”. Besides, the “expression of genes associated with adipogenesis” value in assay [5] is on record as “downregulation”.
